The values that follow come from patent US20220130493A1, “METHOD AND SYSTEMS FOR PHYTOMEDICINE ANALYTICS FOR RESEARCH OPTIMIZATION AT SCALE” (GBS Global BioPharma, Inc., priority 2020, published 2022).

For data set [1] the following is noted: in vivo; cited from earlier work.
The next data set has as its system TRPV1. Nature of the data set: Whole cell patch clamp electrophysiology of TRPV1 conductance. The data set is classed as cell-based. An excerpt:
FIG. 25C provides data on the functional effects of terpenes at the nociceptive ion channel TRPV1.
In general terms: The patch-clamp technique gives a direct electrical read-out from membranes.

Regarding `CN1C[C@H](C(=O)N[C@]2(C)O[C@@]3(O)[C@@H]4CCCN4C(=O)[C@H](Cc4ccccc4)N3C2=O)C=C2c3cccc4[nH]cc(c34)C[C@H]21` [ergotamine], in data set [1], the side effects result is “nausea, vomiting and cardiovascular side effects”.
With `C=CC(=C)CCC=C(C)C` [myrcene], the TRPV1 conductance entry in the data set with TRPV1 is given as “activate TRPV1 conductance”.
